The results in this text go back to PubChem BioAssay (NCI).

One may read the TGI as the concentration at which net growth stops.

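Cells were grown in 96-well plates and exposed to each compound for 48 hours at five concentrations; endpoints were interpolated linearly between bracketing concentrations, or set to the highest concentration if not reached. TGI: total growth inhibition.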

Some test systems named below: A498 renal; CAKI-1 renal; COLO 205 colon; DMS 114 small cell lung; HL-60(TB) leukemia; HOP-18 NSCLC; HOP-92 NSCLC; HT29 colon; LOX IMVI melanoma; MCF7 breast; NCI-H460 lung; OVCAR-5 ovarian; RXF 393 renal; SK-OV-3 ovarian; SN12C renal; SNB-75 CNS; UO-31 renal; XF 498 CNS; ACHN renal; SR leukemia.
Test in all cases: DTP human tumour cell line panel, 48 h

On to `C=CCc1cccc(/C=N\N=C(/N)NO)c1O`, for which the TGI in the assay with A498 renal is over 51.6 µM; in the assay on CAKI-1 renal, 9.01 µM; with COLO 205 colon, over 29.7 µM; in the assay on DMS 114 small cell lung, 12.9 µM; with HL-60(TB) leukemia, over 21.4 µM; with HOP-18 NSCLC, over 100 µM. Moreover, the TGI in the assay with HOP-92 NSCLC was over 67.9 µM; with HT29 colon it was over 58.5 µM; in the assay on LOX IMVI melanoma, 22.7 µM; with MCF7 breast, 9.82 µM; in the assay on NCI-H460 lung, 17.1 µM; with OVCAR-5 ovarian, 64.3 µM. In addition, the TGI with RXF 393 renal worked out at 19.2 µM; with SK-OV-3 ovarian, 32.5 µM; with SN12C renal, 33.5 µM; in the assay on SNB-75 CNS, 25.9 µM; in the assay with UO-31 renal it was 6.69 µM; in the assay on XF 498 CNS it was 9.65 µM.
`N#CCCN(CCC#N)c1ccc(/C=C2\N=C(c3cc([N+](=O)[O-])ccc3Cl)N(NC(=O)CC(=O)Nc3ccccc3Cl)C2=O)cc1`: the TGI in the assay on ACHN renal, in the assay with CAKI-1 renal, in the assay on COLO 205 colon, with DMS 114 small cell lung, in the assay on HOP-92 NSCLC and with LOX IMVI melanoma was over 100 µM in each case. The TGI in the assay on OVCAR-5 ovarian was 66.5 µM; in the assay with RXF 393 renal, over 100 µM; in the assay with SK-OV-3 ovarian, over 100 µM; in the assay with SN12C renal, over 100 µM; in the assay with SR leukemia, over 100 µM; with UO-31 renal, over 100 µM. The TGI in the assay on XF 498 CNS was over 100 µM.
In the case of `O=c1nc2sc3ccc4ccccc4c3n2[nH]c1=O`, the TGI in the assay on COLO 205 colon, with DMS 114 small cell lung, in the assay on HL-60(TB) leukemia, in the assay with HOP-18 NSCLC, with HT29 colon and in the assay on NCI-H460 lung was over 100 µM throughout. In addition, the total growth inhibition concentration (TGI) in the assay with RXF 393 renal was 38.1 µM; with SK-OV-3 ovarian, over 100 µM; in the assay with SN12C renal, over 100 µM; in the assay on SNB-75 CNS it was over 100 µM.
Regarding `CCCOC1OC(CS(=O)(=O)O)C(O)C(O)C1O` (stereo not drawn), the TGI with A498 renal, in the assay on CAKI-1 renal, in the assay on COLO 205 colon, with HL-60(TB) leukemia, with HOP-92 NSCLC and in the assay on HT29 colon was over 100 µM each time. The TGI with LOX IMVI melanoma, in the assay on MCF7 breast, in the assay with NCI-H460 lung, in the assay on OVCAR-5 ovarian, in the assay with RXF 393 renal and in the assay with SK-OV-3 ovarian was over 100 µM in each case. Besides, the TGI in the assay on SN12C renal, with SNB-75 CNS, in the assay on SR leukemia and in the assay on UO-31 renal was over 100 µM throughout.
Regarding `CCCCCCCCCCCCCCCC(=O)OC1C(O)C(CO)OC(OC)C1NC(=O)N(CCCl)N=O` (stereo not drawn), the concentration for total growth inhibition (TGI) with ACHN renal is 21.9 µM; in the assay with CAKI-1 renal, over 100 µM; in the assay with COLO 205 colon, 40.4 µM; in the assay with DMS 114 small cell lung, 28 µM; in the assay with HOP-18 NSCLC it was 31.3 µM; with HT29 colon, 26.8 µM. The concentration for total growth inhibition (TGI) with LOX IMVI melanoma was determined as 23.9 µM; with NCI-H460 lung, 17.6 µM; in the assay on OVCAR-5 ovarian, 30.4 µM; in the assay with SNB-75 CNS, 24.6 µM; in the assay with SR leukemia, 23.7 µM; in the assay with UO-31 renal it was 28.5 µM. In addition, the TGI in the assay on XF 498 CNS was 30.8 µM.
As to `CCOC(=O)NC(Nc1ccc(Cl)cn1)(C(F)(F)F)C(F)(F)F`, the TGI with A498 renal, with ACHN renal, in the assay with HL-60(TB) leukemia, in the assay on HT29 colon, with LOX IMVI melanoma and in the assay on MCF7 breast was over 100 µM in each case. The TGI with NCI-H460 lung, with OVCAR-5 ovarian, with RXF 393 renal, in the assay with SK-OV-3 ovarian, in the assay with SNB-75 CNS and in the assay on SR leukemia was over 100 µM in each case. This molecule displayed a TGI in the assay on UO-31 renal of over 100 µM.
